Legend:
phosphorylated PRAS40 [1] = test: Immunoblot of phosphorylated PRAS40 in MCF10A cells; type: cell-based, human; conditions: 24-hour treatment
Experimental: MDA-MB-468 (human breast cancer cell line) cells were maintained in RPMI 1640 (Wisent Bioproducts) supplemented with 10% FBS (Thermo Fisher Scientific) and MCF10A (human breast epithelial cell line) cells were maintained in Dulbecco's modified Eagle's medium (DMEM)/Ham's F12 (Wisent Bioproducts) supplemented with 5% equine serum (Fisher), insulin (10 μg/ml) (Life Technologies), hydrocortisone (500 ng/ml) (Sigma-Aldrich®), epidermal growth factor (20 ng/ml) (R&D Systems), and cholera toxin (100 ng/ml) (List Biological Lab). MDA-MB-468 and MCF10A cells were seeded at 250,000 cells/mL and 200,000 cells/mL, respectively. The following day cells were treated with inventive bifunctional compounds. After 24 hours, cells were washed with phosphate-buffered saline at 4° C. and lysed in radioimmunoprecipitation assay (RIPA) buffer (150 mM Tris-HCl, 150 mM NaCl, 0.5% (w/v) sodium deoxycholate, 1% (v/v) NP-40, pH 7.5) containing 0.1% (w/v) sodium dodecyl sulfate, 1 mM sodium pyrophosphate, 20 mM sodium fluoride, 50 nM calyculin, and 0.5% (v/v) protease inhibitor cocktail (Sigma-Aldrich®)). Cell extracts were precleared by centrifugation at 14,000 rpm for 10 minutes at 4° C. The Bio-Rad DC protein assay was used to assess protein concentration, and sample concentration was normalized using SDS sample buffer. […] Images were stored and analyzed using ImageStudioTM (LI-COR®) software. […]

[2] = system: phospho-PRAS40 (T246), phospho-GSK3I3 (S9), phospho-S6 (S240/244); test: Immunoblot of downstream signaling (pPRAS40, pGSK3, pS6) in T47D and MDA-MB-468 cells; type: cell-based, human
Experimental: Solid vertical white line indicates samples run on separate gels. […] Solid vertical white line indicates samples run on separate gels. Cells were plated at 250,000 cells per mL (MDA-MB-468, MOLT4, IGROV1, PC3, and Jurkat) or 200,000 cells per mL (T47D) in 2 mL per well of RPMI or DMEM media with 10% serum in 6-well treated tissue culture plates (Greiner, Cat #TCG-657160) or 60 mm treated tissue culture plates (Corning®, Cat #430166) and incubated overnight. The next day, cells were treated with the indicated compounds at the appropriate concentration and protein lysates were harvested at the times specified. Cells were washed once in 1×PBS then lysed in RIPA buffer (150 mM Tris-HCl, 150 mM NaCl, 0.5% (w/v) sodium deoxycholate, 1% (v/v) NP-40, pH 7.5) containing 0.1% (w/v) sodium dodecyl sulfate, 1 mM sodium pyrophosphate, 20 mM sodium fluoride, 50 nM calyculin, and 0.5% (v/v) protease inhibitor cocktail (Sigma-Aldrich®) for 15 minutes. Cell extracts were precleared by centrifugation at 14,000 rpm for 10 minutes at 4° C. The Bio-Rad DC protein assay was used to assess protein concentration, and sample concentration was normalized using SDS sample buffer. Lysates were resolved on acrylamide gels by SDS-polyacrylamide gel electrophoresis and electrophoretically transferred to nitrocellulose membrane (BioRad) at 100 volts for 90 minutes. Membranes were blocked in 5% (w/v) nonfat dry milk in tris-buffered saline (TBS) buffer for 1 hour then incubated with specific primary antibodies diluted in 5% (w/v) nonfat dry milk in TBS-T (TBS with 0.05% Tween®-20) at 4° C. overnight, shaking. The next day, membranes were washed with TBS-T then incubated for 1 hour at room temperature with fluorophore-conjugated secondary antibodies (LI-COR® Biosciences). The membrane was washed again with TBS-T then imaged with a LI-COR® Odyssey® CLx Imaging System (LI-COR® Biosciences).

ZR-75-1 cells = test: Growth inhibition rate (GR) assay in ZR-75-1 cells; type: cell-based; conditions: 72-hour treatment (FIG. 6A)
Source text: (§1) FIG. 6A-FIG. 6F are a set of graphs that show growth inhibition rate (GR) values across concentrations in ZR-75-1 (FIG. 6A), T47D (FIG. 6B), LNCaP (FIG. 6C), MCF-7 (FIG. 6D), MDA-MB-468 (FIG. 6E), and HCC1937 (FIG. 6F) cells after 72-hour treatment with GDC-0068 (blue), inventive bifunctional compound 10 (red), bifunctional compound 10-Me (negative control) (green), and lenalidomide (orange). Error bars represent the standard deviation of three technical replicates.

phosphorylated PRAS40 [3] = test: Immunoblot of phosphorylated PRAS40 in MDA-MB-468 cells; type: cell-based, human; conditions: 24-hour treatment
Experimental: MDA-MB-468 (human breast cancer cell line) cells were maintained in RPMI 1640 (Wisent Bioproducts) supplemented with 10% FBS (Thermo Fisher Scientific) and MCF10A (human breast epithelial cell line) cells were maintained in Dulbecco's modified Eagle's medium (DMEM)/Ham's F12 (Wisent Bioproducts) supplemented with 5% equine serum (Fisher), insulin (10 μg/ml) (Life Technologies), hydrocortisone (500 ng/ml) (Sigma-Aldrich®), epidermal growth factor (20 ng/ml) (R&D Systems), and cholera toxin (100 ng/ml) (List Biological Lab). MDA-MB-468 and MCF10A cells were seeded at 250,000 cells/mL and 200,000 cells/mL, respectively. The following day cells were treated with inventive bifunctional compounds. After 24 hours, cells were washed with phosphate-buffered saline at 4° C. and lysed in radioimmunoprecipitation assay (RIPA) buffer (150 mM Tris-HCl, 150 mM NaCl, 0.5% (w/v) sodium deoxycholate, 1% (v/v) NP-40, pH 7.5) containing 0.1% (w/v) sodium dodecyl sulfate, 1 mM sodium pyrophosphate, 20 mM sodium fluoride, 50 nM calyculin, and 0.5% (v/v) protease inhibitor cocktail (Sigma-Aldrich®)). Cell extracts were precleared by centrifugation at 14,000 rpm for 10 minutes at 4° C. The Bio-Rad DC protein assay was used to assess protein concentration, and sample concentration was normalized using SDS sample buffer. […] Images were stored and analyzed using ImageStudioTM (LI-COR®) software.

[4] = system: ZR-75-1, T47D, LNCaP, MCF-7 cells; test: Growth inhibition rate (GR) assay in cell lines sensitive to AKT inhibition; type: cell-based; conditions: MCF-7, 72-hour treatment (FIG. 6A-6D)
Source text: as §1

[5] = T47D and MDA-MB-468 cells, 250 nM (FIG. 7C-7D)

Row | SMILES | Phosphorylated PRAS40 signal (phosphorylated PRAS40 [1]) | Duration of reduction of pPRAS40 levels [2, 5] | Inhibition of pPRAS40 compared with compound 10 [2, 5] | Phosphorylation of PRAS40, GSK3I3 and S6 ([2]; T47D and MDA-MB-468 cells, 250 nM, 24 hours (FIG. 7A-7B)) | pPRAS40 levels after compound washout ([2]; T47D or MDA-MB-468 cells, 12 h treatment at 250 nM, then washout (FIG. 7E-7F)) | GR50 (ZR-75-1 cells) | Phosphorylated PRAS40 signal (phosphorylated PRAS40 [3]) | Anti-proliferative effects [4]
1 | CC(C)NC[C@@H](C(=O)N1CCN(c2ncnc3c2[C@H](C)C[C@H]3O)CC1)c1ccc(Cl)cc1 [GDC-0068] | reduction of phosphorylated PRAS40 signal | shorter | less-pronounced inhibition of pPRAS40 | weaker responses | rebound of pPRAS40 | comparable GR50 value | reduction of phosphorylated proline-rich AKT substrate of 40 kDa (PRAS40) signal | 
2 | Nc1cccc2c1CN(C1CCC(=O)NC1=O)C2=O (centres unmarked) [lenalidomide] |  |  |  |  |  |  |  | did not have strong anti-proliferative effects
